Here are results for 1 molecule from patent US9585864B2, “Anticancer formulation” (National Dong Hwa University, priority 2010, dated 2017).

Experiment [1] has as its system Nur77 in DBTRG-05NG cells (human GBM cells). As to the kind of experiment: Nur77 translocation by immunostaining, fluorescence microscopy. It counts as cell-based. Conditions: 100 μg/mL, 24 hours. As for the experimental part: Whether translocation of Nur77 occurred in response to z-Bdph was examined. DBTRG-05NG cells (human GBM cells) were treated with Bdph (100 μg/mL) for 24 hours, then immunostained with anti-Nur77 antibody followed by corresponding Rhodamine-conjugated anti-IgG secondary antibody. Simultaneously, cells were stained with DAPI to display the nuclei. The fluorescent images were visualized with a fluorescence microscope.

The test system of experiment [2] is Axl receptor tyrosine kinase (RTK). Kind of experiment: RT-PCR and Western blot of Axl expression in GBM cells. Format: cell-based. As for the experimental part: Reverse transcriptase-polymerase chain reaction (RT-PCR) was used to examine the effect of z-Bdph on the gene expression profile in GBM cells to elucidate the possible mechanisms of z-Bdph's inhibition of malignant brain tumor.
Western Blot assays were also carried out to examine the Axl protein level of the GBM cells in the presence of z-Bdph.
Background: A western blot detects proteins with antibodies after separation by electrophoresis.

For experiment [3], the system named is Nur77. As to the kind of experiment: RT-PCR of orphan receptor Nur77 mRNA expression in RG2 cells. The note with it: IC50 concentration of z-Bdph, 0, 0.5, 1, 3 and 6 h. Format: cell-based, rat. The procedure:
To confirm the results of the oligodeoxynucleotide-based microarray analysis, expression of the orphan receptors NOR-1, Nurr1, and Nur77 was examined in z-Bdph-treated RG2 cells by RT-PCR.
RG2 cells were incubated with IC50 concentration of z-Bdph for various time periods (0, 0.5, 1, 3, and 6 h). After incubation, cells were collected and total RNA isolated. Expression of GADPH was used as an internal control.

For experiment [4], the system named is JNK, AKT, ERK. As to the kind of experiment: Western blot of signaling pathway phosphorylation in RG2 cells. It counts as cell-based, rat. The note with it: 100 μg/ml, treatment for 1 hour. As for the experimental part: Finally, signaling pathways involved in z-Bdph-induced Nur77 gene expression were investigated. RG2 cells were treated with Bdph (100 μg/ml) for various time periods (0, 15, 30, 60, and 180 mins).

Experiment [5] concerns DBTRG-05MG cells (human GBM). As to the kind of experiment: Matrigel invasion chamber and PET membrane migration assay. The note with it: 24 hours. It counts as cell-based. As for the experimental part:
The invasion of DBTRG-05MG cells was examined using a BioCoat matrigel invasion chamber system (BD Bioscience, Bedford, Mass.). The BD matrigel Matrix is composed of laminin, collagen IV, nidogen/entrctin, and proteoglycan on polyethylene terephthalate (PET) membranes containing 8 μm pores. In the in vitro migration assay, low pore density PET track-etched membrane on Falcon culture insert (BD Bioscience) was applied. The membrane was placed between the upper and lower wells of a Matrigel chamber or Falcon culture inserts. The cells were first resuspended in PRMI 1640 containing 10% fetal bovine serum and seeded into the upper wells of the chamber (50,000 cells per well). After incubating for 24 hours at 37° C., the cells that invaded or migrated through the membrane were stained with Liu stain (Handsel Technologies, Inc., Taipei, Taiwan) and counted under a microscopy. Each experiment was repeated thrice.

The structures appear in SMILES notation.

`CCC/C=C1\OC(=O)c2ccccc21` [z-Bdph, (Z)-n-butylidenephthalide]: in experiment [1], the “translocation of Nur77” value was “Nur77 was translocated from the nucleus to the cytoplasm”. For the same molecule, the “mRNA expression of Axl receptor tyrosine kinase” value in experiment [2] (RT-PCR) is reported as “down-regulated”. The Axl protein level result in experiment [2] (Western blot) is on record as “reduced”. Also, the “mRNA expression of Nur77” value in experiment [3] is “induced in the cells in a time-dependent manner”. Moreover, the “phosphorylation of JNK, AKT, ERK” value in experiment [4] was “JNK, AKT, ERK were significantly phosphorylated”. Moreover, the “invasion of DBTRG-05MG cells” value in experiment [5] (BioCoat matrigel invasion chamber) is “inhibited migration and invasion of DBTRG-05MG cells in a dose dependent manner”. In experiment [5] (PET track-etched membrane), the “migration of DBTRG-05MG cells” value was “inhibited migration and invasion of DBTRG-05MG cells in a dose dependent manner”.
